From the NIST ThermoML archive (doi:10.1016/j.fluid.2013.06.048)
Values joined by “and” are separate entries in the source; they are usually repeats but may differ in a detail not shown here. Equal values may be shown once. ± gives the expanded uncertainty stated by the source.

Conditions: Liquid; pulse-heating method

OCCCCO [1,4-butanediol]
Critical pressure: 5400 ± 160 kPa and 6220 ± 160 kPa and 5520 ± 160 kPa | Critical temperature: 728 ± 24 K and 727 ± 24 K and 723.8 ± 24 K

OCCCCCO [1,5-pentanediol]
Critical pressure: 4000 ± 160 kPa | Critical temperature: 731 ± 24 K

OCCCCCCO [1,6-hexanediol]
Critical pressure: 3400 ± 160 kPa and 4080 ± 160 kPa

OCCCCCCCCO [1,8-octanediol]
Critical pressure: 2700 ± 160 kPa | Critical temperature: 752 ± 24 K

OCCCCCCCCCO [1,9-nonanediol]
Critical pressure: 2400 ± 160 kPa | Critical temperature: 760 ± 24 K

OCCCCCCCCCCO [1,10-decanediol]
Critical pressure: 2200 ± 160 kPa | Critical temperature: 770 ± 24 K

OCCCCCCCCCCCCO [1,12-dihydroxydodecane]
Critical pressure: 1930 ± 160 kPa | Critical temperature: 798 ± 24 K

OCCCO [propan-1,3-diol]
Critical pressure: 6380 ± 160 kPa and 6300 ± 200 kPa and 6550 ± 160 kPa | Critical temperature: 721 ± 24 K and 722 ± 24 K and 718.2 ± 24 K
